Data published in ChEMBL document CHEMBL1201862, “PubChem BioAssay data set” (2004).
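These data come from cells grown in 96-well plates and exposed to compound for 48 hours at five concentrations. GI50 = concentration required for 50% inhibition of growth.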 Calls of active or inactive are those of the source. No stated cut-off is given here; in the data, active = GI50 up to about 1.1 µM and inactive = higher.

What was measured:
Assay in all cases: growth of human tumour cells (NCI), 48 h
KM12 = tested on: KM12
UACC-257 = tested on: UACC-257
M19-MEL = tested on: M19-MEL
HCC 2998 = tested on: HCC 2998
RXF 393 = tested on: RXF 393
SF-268 = tested on: SF-268
EKVX = tested on: EKVX
SNB-78 = tested on: SNB-78
SF-295 = tested on: SF-295
SK-MEL-5 = tested on: SK-MEL-5
HCT-116 = tested on: HCT-116
NCI-H23 = tested on: NCI-H23
MOLT-4 = tested on: MOLT-4
SK-MEL-28 = tested on: SK-MEL-28
HOP-18 = tested on: HOP-18
LXFL 529 = tested on: LXFL 529
HOP-92 = tested on: HOP-92
M14 = tested on: M14
DLD-1 = tested on: DLD-1
UO-31 = tested on: UO-31
DMS-114 = tested on: DMS-114
A498 = tested on: A498
CCRF-CEM = tested on: CCRF-CEM
NCI-H460 = tested on: NCI-H460
SW-620 = tested on: SW-620
HCT-15 = tested on: HCT-15
ACHN = tested on: ACHN
CAKI-1 = tested on: CAKI-1
OVCAR-8 = tested on: OVCAR-8
RXF 631 = tested on: RXF 631
HL-60 = tested on: HL-60
KM-20L2 = tested on: KM-20L2
OVCAR-3 = tested on: OVCAR-3
COLO 205 = tested on: COLO 205
OVCAR-4 = tested on: OVCAR-4
786-0 = tested on: 786-0
K562 = tested on: K562
HT-29 = tested on: HT-29
SF-539 = tested on: SF-539
IGROV-1 = tested on: IGROV-1
NCI-H226 = tested on: NCI-H226
UACC-62 = tested on: UACC-62
Malme-3M = tested on: Malme-3M
A549 = tested on: A549
SN12C = tested on: SN12C
OVCAR-5 = tested on: OVCAR-5
RPMI-8226 = tested on: RPMI-8226
HOP-62 = tested on: HOP-62
SR = tested on: SR
LOX IMVI = tested on: LOX IMVI
TK-10 = tested on: TK-10
SNB-19 = tested on: SNB-19
SNB-75 = tested on: SNB-75
SK-OV-3 = tested on: SK-OV-3
U-251 = tested on: U-251
NCI-H522 = tested on: NCI-H522
DMS-273 = tested on: DMS-273
SK-MEL-2 = tested on: SK-MEL-2

O=C(Nc1ccccc1)N1C(c2ccccc2)=N[C@@H](c2ccccc2)[C@@H]1c1ccccc1 was tested, and the GI50 (KM12) was 18.3 µM (inactive), the GI50 (UACC-257) was 19 µM (inactive) and the GI50 (M19-MEL) was 19.5 µM (inactive). The GI50 (HCC 2998) was 18.5 µM (inactive), the GI50 (RXF 393) was 15.2 µM (inactive) and the GI50 (SF-268) was 22.3 µM (inactive). The GI50 (EKVX) was 43.7 µM (inactive), the GI50 (SNB-78) was 33.7 µM (inactive) and the GI50 (SF-295) was 21.9 µM (inactive). The GI50 (SK-MEL-5) was 13.6 µM (inactive), the GI50 (HCT-116) was 17.6 µM (inactive) and the GI50 (NCI-H23) was 23.7 µM (inactive). The GI50 (MOLT-4) was 19.1 µM (inactive), the GI50 (SK-MEL-28) was 15.6 µM (inactive) and the GI50 (HOP-18) was 18.9 µM (inactive). The GI50 (LXFL 529) was 15.6 µM (inactive), the GI50 (HOP-92) was 18.3 µM (inactive) and the GI50 (M14) was 14.6 µM (inactive). The GI50 (DLD-1) was 15.1 µM (inactive), the GI50 (UO-31) was 16.1 µM (inactive) and the GI50 (DMS-114) was 14.7 µM (inactive). The GI50 (A498) was 18.3 µM (inactive), the GI50 (CCRF-CEM) was 22.6 µM (inactive) and the GI50 (NCI-H460) was 31.4 µM (inactive). For the same molecule, the GI50 (SW-620) was 18.8 µM (inactive), the GI50 (HCT-15) was 23.8 µM and the GI50 (ACHN) was 15.3 µM (inactive). The GI50 (CAKI-1) was 21.5 µM (inactive), the GI50 (OVCAR-8) was 22.8 µM (inactive) and the GI50 (RXF 631) was 35.2 µM (inactive). The GI50 (HL-60) was 19 µM (inactive), the GI50 (KM-20L2) was 18.1 µM (inactive) and the GI50 (OVCAR-3) was 22.9 µM (inactive). The GI50 (COLO 205) was 14.6 µM (inactive), the GI50 (OVCAR-4) was 17.6 µM (inactive) and the GI50 (786-0) was 17.6 µM (inactive). For the same molecule, the GI50 (K562) was 17.7 µM (inactive), the GI50 (HT-29) was 16.6 µM (inactive) and the GI50 (SF-539) was 18.6 µM (inactive). The GI50 (IGROV-1) was 22.4 µM (inactive), the GI50 (NCI-H226) was 23.3 µM (inactive) and the GI50 (UACC-62) was 19.9 µM (inactive). For the same molecule, the GI50 (Malme-3M) was 17.5 µM (inactive), the GI50 (A549) was 21.2 µM (inactive) and the GI50 (SN12C) was 21.9 µM (inactive). The GI50 (OVCAR-5) was 19.3 µM (inactive), the GI50 (RPMI-8226) was 22.5 µM (inactive) and the GI50 (HOP-62) was 20.6 µM (inactive). For the same molecule, the GI50 (SR) was 14.8 µM (inactive), the GI50 (LOX IMVI) was 14.6 µM (inactive) and the GI50 (TK-10) was 31.3 µM (inactive). For the same molecule, the GI50 (SNB-19) was 31.6 µM (inactive) and the GI50 (SNB-75) was 22.1 µM (inactive).

In the case of COc1cc(CC(=O)O)c([N+](=O)[O-])cc1OC, the GI50 (KM12) was > 100 µM (inactive), the GI50 (UACC-257) was > 100 µM (inactive) and the GI50 (SK-OV-3) was > 100 µM (inactive). The GI50 (M19-MEL) was > 100 µM (inactive), the GI50 (U-251) was > 100 µM (inactive) and the GI50 (HCC 2998) was > 100 µM (inactive). The GI50 (RXF 393) was > 100 µM (inactive), the GI50 (SF-268) was > 100 µM (inactive) and the GI50 (EKVX) was > 100 µM (inactive). For the same molecule, the GI50 (SNB-78) was > 100 µM (inactive), the GI50 (SF-295) was > 100 µM (inactive) and the GI50 (HCT-116) was > 100 µM (inactive). The GI50 (NCI-H23) was > 100 µM (inactive), the GI50 (MOLT-4) was > 100 µM (inactive) and the GI50 (SK-MEL-28) was > 100 µM (inactive). For the same molecule, the GI50 (LXFL 529) was > 100 µM (inactive), the GI50 (HOP-92) was > 100 µM (inactive) and the GI50 (M14) was > 100 µM (inactive). For the same molecule, the GI50 (DLD-1) was > 100 µM (inactive), the GI50 (UO-31) was > 100 µM (inactive) and the GI50 (DMS-114) was > 100 µM (inactive). The GI50 (NCI-H522) was > 100 µM (inactive), the GI50 (A498) was > 100 µM (inactive) and the GI50 (CCRF-CEM) was > 100 µM (inactive). For the same molecule, the GI50 (NCI-H460) was > 100 µM (inactive), the GI50 (SW-620) was > 100 µM (inactive) and the GI50 (HCT-15) was over 100 µM. For the same molecule, the GI50 (ACHN) was > 100 µM (inactive), the GI50 (DMS-273) was > 100 µM (inactive) and the GI50 (CAKI-1) was > 100 µM (inactive). The GI50 (OVCAR-8) was > 100 µM (inactive), the GI50 (SK-MEL-2) was > 100 µM (inactive) and the GI50 (RXF 631) was > 100 µM (inactive). For the same molecule, the GI50 (HL-60) was > 100 µM (inactive), the GI50 (KM-20L2) was > 100 µM (inactive) and the GI50 (OVCAR-3) was > 100 µM (inactive). The GI50 (COLO 205) was > 100 µM (inactive), the GI50 (OVCAR-4) was > 100 µM (inactive) and the GI50 (786-0) was > 100 µM (inactive). The GI50 (K562) was > 100 µM (inactive), the GI50 (HT-29) was > 100 µM (inactive) and the GI50 (SF-539) was > 100 µM (inactive). The GI50 (IGROV-1) was > 100 µM (inactive), the GI50 (NCI-H226) was > 100 µM (inactive) and the GI50 (UACC-62) was > 100 µM (inactive). The GI50 (Malme-3M) was > 100 µM (inactive), the GI50 (A549) was > 100 µM (inactive) and the GI50 (SN12C) was > 100 µM (inactive). For the same molecule, the GI50 (OVCAR-5) was > 100 µM (inactive), the GI50 (RPMI-8226) was > 100 µM (inactive) and the GI50 (HOP-62) was > 100 µM (inactive). For the same molecule, the GI50 (LOX IMVI) was > 100 µM (inactive), the GI50 (TK-10) was > 100 µM (inactive) and the GI50 (SNB-19) was > 100 µM (inactive). For the same molecule, the GI50 (SNB-75) was > 100 µM (inactive).
